Consider three compounds from US9595012B2, “Method for improving the environmental impact of formulated products” (Johnson & Johnson Consumer Inc., priority 2010, dated 2017).

Data set [1] has as its system algae. Particulars: 50% inhibition in growth rate, empirical acute study; cited from earlier work.
Data set [2] deals with fish. The experiment in a line: Acute aquatic toxicity, vertebrate/secondary consumer, 50% lethality. Particulars: scale 0-100, from LC50 by Table 5.
The subject of data set [3] is water flea. The experiment in a line: Acute aquatic toxicity, invertebrate/primary consumer, 50% immobilization. The settings on record: scale 0-100, from EC50 by Table 5.
Data set [4] has as its system fish. The settings on record: 50% lethality, empirical acute study; cited from earlier work.
Data set [5] relates to algae. The experiment in a line: Acute aquatic toxicity, aquatic plant/primary producer, 50% inhibition in growth rate. The settings on record: scale 0-100, from EC50 by Table 5.
In data set [6] the test system is water flea. The settings on record: 50% immobilization, empirical acute study; cited from earlier work.
The next data set concerns aquatic organisms. The experiment in a line: Overall toxicity scoring (minimum organism-specific toxicity score). Particulars: scale 0-100; minimum of the organism-specific scores. As for the experimental part:
Using the linear scoring scale in Table 5 (below), each of the three organism L(E)C50 values (i.e., LC50 or EC50 values) are transformed to an organism-specific toxicity score for the ingredient. If the organism-specific toxicity score is based on an estimated L(E)C50 value rather than an empirical L(E)C50 value, that score is reduced by an uncertainty penalty (e.g., 5 points).
The overall ingredient toxicity score is determined as the minimum organism-specific toxicity score. If no score could be determined for one class of aquatic indicator organism (i.e., primary producer, primary consumer, secondary consumer), the overall ingredient toxicity score is reduced by an uncertainty penalty (e.g., 5 points). If no score could be determined for two classes of aquatic indicator organisms, the overall ingredient score is reduced by a larger uncertainty penalty (e.g., 10 points).
The process used for ingredients that are organic compounds is also used for ingredients that are inorganic compounds with the following exceptions: (1) only empirical data are considered, as models for predicting the aquatic toxicity of metals are not widely available; (2) the toxicity of the ingredient and all plausible environmental degradants are calculated. The lowest Toxicity score among the ingredient and its plausible environmental degradants is assigned as the final Toxicity score for the ingredient.

With `OCC(O)CO` [Glycerin], the “Aquatic Plant EC50” value in the data set on algae [1] was 46,000 mg/L. Moreover, the Fish toxicity score in the data set with fish [2] is 100. The Invertebrate toxicity score in the data set with water flea [3] stood at 100. In addition, the “Fish LC50” value in the data set with fish [4] is listed as 5,000 mg/L. In the data set on algae [5], the “Aquatic Plant toxicity score” value is reported as 100. Further, the “Invertebrate EC50” value in the data set on water flea [6] is recorded as 10,000 mg/L. The compound further had a Toxicity score with aquatic organisms of 100.
Regarding `[Zn+2]` [Zn^2+], in the data set with aquatic organisms, the Toxicity score result is on record as “zero”.
In the case of `[O]=[Zn]` [zinc oxide], the Toxicity score result in the data set with aquatic organisms is given as “zero”.
